Data as given in patent publication US20030119186A1, “Enzyme-mediated modification of fibrin for tissue engineering: fibrin formulations with peptides” (Eidgenossische Technische Hochschule Zurich, priority 1998, published 2003).
Values joined by “and” are separate entries in the source; they are usually repeats but may differ in a detail not shown here. Identical values can stand only once.

Tests used:
[1] = test system: day 8 chick dorsal root ganglia; assay: Neurite outgrowth from dorsal root ganglia embedded in three dimensional peptide-modified fibrin gels, normalized to unmodified fibrin; assay type: cell-based; settings: for concentration of incorporated peptide giving maximal effect on neurite outgrowth / correlation between peptide concentration and level of enhancement of neurite outgrowth / peptide concentration showing maximal enhancement of neurite outgrowth: single peptide cross-linked into fibrin, concentration series; for concentration of incorporated peptide giving maximal effect on neurite outgrowth / peptide concentration showing maximal enhancement of neurite outgrowth: growth at 24 and 48 hr; for Enhancement of Neurite Outgrowth (%): bi-domain peptide cross-linked into fibrin at 8 mol/mol fg without heparin, 48 hours, relative to unmodified fibrin
Procedure: FIG. 1 Enhancement of neurite outgrowth with HAV (SEQ. I.D. NO. 6) modified fibrin gels. A concentration series of HAV (SEQ. I.D. NO. 6) cross-linked into fibrin was tested in triplicate with day 8 chick dorsal root ganglia. The level of growth at 24 and 48 hours was calculated and normalized to growth in unmodified fibrin. Mean and standard error of the mean are shown. Legend to FIG. 1: -[…]- 24 Hours, -⋄- 48 Hours.
FIG. 8 Heparin binding peptides derived from three separate proteins, NCAM (SEQ. I.D. NO. 7), platelet factor 4 and antithrombin III were cross-linked into fibrin at 8 mol/mol fg. The level of neurite outgrowth at 48 hours was normalized against growth in unmodified fibrin and is shown below. Additionally, controls of crosslinked peptide with heparin or just soluble peptide were tested. […] Mean and standard error of the mean are shown. Legend for FIG. 8: ? Peptide Grafted at 8 mol/mol Fg, □ Peptide Grafted at 8 mol/mol Fg with Soluble Heparin, ? Peptide Added in Soluble Phase.
Multiple peptide sequences from extracellular matrix proteins have been chosen. These proteins were chosen in part because of their reported ability to enhance neurite outgrowth (Yamada, 1991, Tashiro, et al., 1989). These proteins have been tested at various concentrations. To test these peptides, specific selected peptide sequences were cross-linked into a three dimensional fibrin matrix with a day 8 dorsal root ganglia embedded into the gels. The neurites were grown for 48 hr, and the migration rate of the neurites extending from the ganglia was quantified for each condition at both 24 and 48 hr. This growth was then normalized to the growth in unmodified fibrin. […] HAV (SEQ. I.D. NO. 6) achieved a maximal effect at 2 mol/mol fg while RGD (SEQ. I.D. NO. 2) achieved a maximal effect at 1.5 mol/mol fg of incorporated peptide.
In one example, the peptide was cross-linked into the gel alone and in the second example, it was incorporated in the presence of heparin. […] Therefore, the effects of interaction between the growing neurites and either a heparin binding domain or heparin itself could be determined. When the peptide was incorporated without heparin present, it was able to enhance the extension of neurites from day 8 chick dorsal root ganglia. Three bi-domain peptides, each with a different heparin binding domain, were tested and gave statistically better growth than unmodified fibrin (FIG. 8). The level of improvement ranged from 75% to 25%. This level of enhancement could be correlated to the binding affinity of the heparin binding domain that was incorporated (Table 3). When heparin was added at the beginning of the study, it was discovered that this abolished the effect, resulting in growth similar to that seen in unmodified fibrin.

[2] = Elution from heparin affinity column (relative heparin binding affinity); settings: relative heparin binding affinity of bi-domain peptide
Source text: Table 3 Provides results of the relative heparin binding affinity and enhancement of three dimensional neurite outgrowth for several heparin binding peptides. There is a correlation between the binding strength for each peptide and the percent enhancement of neurite outgrowth.

Substance: HAV (heparin binding peptide)
- concentration of incorporated peptide giving maximal effect on neurite outgrowth [1]: 2 mol/mol fg

Substance: IKVAV (heparin binding peptide)
- correlation between peptide concentration and level of enhancement of neurite outgrowth [1]: linear correlation
- peptide concentration showing maximal enhancement of neurite outgrowth [1]: 8 mol peptide/mol fibrinogen

Substance: LNQEQVSP K(βA)FAKLAARLYRKA [ATIII]
- Enhancement of Neurite Outgrowth (%) [1]: 73.1%
- Elution from Heparin Affinity Column (Mol NaCl) [2]: 0.67 Mol NaCl

Substance: LNQEQVSP KHKGRDVILKKDVR (LNQEQVSPKHKGRDVILKKDVR; heparin binding sequence) [PF4]
- Enhancement of Neurite Outgrowth (%) [1]: 20.2%
- Elution from Heparin Affinity Column (Mol NaCl) [2]: 0.34 Mol NaCl

Substance: LNQEQVSP YKKIIKKL (LNQEQVSPYKKIIKKL) [NCAM]
- Enhancement of Neurite Outgrowth (%) [1]: 24.5%
- Elution from Heparin Affinity Column (Mol NaCl) [2]: 0.35 Mol NaCl

Substance: RGD
- concentration of incorporated peptide giving maximal effect on neurite outgrowth [1]: 2 mol/mol fg and 1.5 mol/mol fg

Substance: RNIAEIIKDI
- correlation between peptide concentration and level of enhancement of neurite outgrowth [1]: linear correlation
- peptide concentration showing maximal enhancement of neurite outgrowth [1]: 8 mol peptide/mol fibrinogen

Substance: YIGSR (heparin binding peptide)
- correlation between peptide concentration and level of enhancement of neurite outgrowth [1]: linear correlation
- peptide concentration showing maximal enhancement of neurite outgrowth [1]: 6 mol peptide/mol fibrinogen
